Source: patent US10322110B2, “Imidazole-based antimicrobial agents” (priority 2014, dated 2019)
In brackets after ≈: the same amount, converted by molar mass. Like-named read-outs stand apart in the source and are kept apart here.

Tests used:
Format in all cases: cell-based
[1] = test system: Staphylococcus aureus MRSA (COL); test: broth microdilution MIC assay, Staphylococcus aureus MRSA (COL); conditions: for MIC: Staphylococcus aureus, MRSA; for Antibacterial activity Staphylococcus aureus (MRSA): MIC100 class score, broth microdilution
[2] = test system: Staphylococcus epidermidis (PCI 1200, ATCC12228); test: broth microdilution MIC assay, Staphylococcus epidermidis; conditions: ATCC12228, read-out: Antibacterial activity SE (Staphylococcus epidermidis)
[3] = test system: Staphylococcus aureus MSSA (Newman); test: broth microdilution MIC assay, Staphylococcus aureus MSSA (Newman); conditions: for MIC: Staphylococcus aureus
[4] = test system: penicillin-, erythromycin- and tetracycline-resistant Streptococcus pneumoniae (ATCC 700677), ARSP; test: microbe, parasite or virus in culture
[5] = test system: Streptococcus pneumoniae (Chester, ATCC49619); test: broth microdilution MIC assay, Streptococcus pneumoniae; conditions: MIC100 class score, 24 h
[6] = test system: Human hepatocytes (HepaRG cells); test: human cytotoxicity assay in vitro (CellTiter-Glo), hepatocytes; conditions: cytotoxicity class
[7] = test system: Bacillus subtilis (Marburg strain, ATCC6051); test: microbe, parasite or virus in culture; conditions: ATCC6051, read-out: Antibacterial activity BS (Bacillus substilis)
[8] = 24 h, read-out: Antibacterial activity Staphylococcus aureus (MRSA)
[9] = read-out: Antibacterial activity MRSA (Staphylococcus aureus MRSA)
[10] = 24 h, read-out: Antibacterial activity Staphylococcus aureus (MSSA)
[11] = read-out: Antibacterial activity MSSA (Staphylococcus aureus MSSA)
[12] = ATCC700677, read-out: Antibacterial activity ARSP (multi-drug resistant-SP)
[13] = ATCC700677, MIC activity class, read-out: Antibacterial activity ARSP (multi-drug resistant-SP)

SMILES	MIC [1, 8] [µg/mL]	MIC [1, 9] [µg/mL]	MIC [2] [µg/mL]	MIC [3, 10] [µg/mL]	MIC [3, 11] [µg/mL]	Antibacterial activity Streptococcus pneumoniae [5]	cytotoxicity cell line H (hepatocytes) [6]	also measured
Cc1[nH]c(-c2ccc(-c3ccc(OC(F)(F)F)c(Cl)c3)o2)nc1-c1ccc(Cl)cc1 [Compound 50]	11 to 201 (≈ 24.3 to 443 µM)	11 to 201 (≈ 24.3 to 443 µM)	20 to 50 (≈ 44.1 to 110 µM)	3 to 10 (≈ 6.62 to 22.1 µM)	3 to 10 (≈ 6.62 to 22.1 µM)			
Cc1[nH]c(-c2ccc(-c3cccc(C(F)(F)F)c3)o2)nc1-c1ccc(F)cc1 [Compound 38]		1 to 3 (≈ 2.59 to 7.77 µM)	3 to 10 (≈ 7.77 to 25.9 µM)		1 to 3 (≈ 2.59 to 7.77 µM)	3 (MIC100 of 2-5 μg/ml)		MIC [4, 12]: < 1 µg/mL
Cc1[nH]c(-c2ccc(-c3ccccc3C(F)(F)F)o2)nc1-c1ccccc1 [Compound 17]	1 to 3 (≈ 2.71 to 8.14 µM)	1 to 3 (≈ 2.71 to 8.14 µM)	20 to 50 (≈ 54.3 to 136 µM)	3 to 10 (≈ 8.14 to 27.1 µM)	3 to 10 (≈ 8.14 to 27.1 µM)		3	MIC [7]: 1 to 3 µg/mL (≈ 2.71 to 8.14 µM)
Cc1[nH]c(-c2cc(C)n(-c3ccc(F)cc3F)c2C)nc1-c1ccccc1 [Compound 9]		20 to 50 (≈ 55 to 138 µM)				2 (MIC100 of 6-10 μg/ml)	3	
Cc1[nH]c(-c2coc(-c3ccccc3C(F)(F)F)c2)nc1-c1ccccc1 [Compound 72]						2 (MIC100 of 6-10 μg/ml)	3	
Cc1nc(-c2ccc(-c3ccccc3C(F)(F)F)o2)[nH]c1-c1ccccc1Cl [Compound 20]					20 to 50 (≈ 49.7 to 124 µM)		3	MIC [4, 13]: 2 to 5 µg/mL (≈ 4.97 to 12.4 µM); MIC [7]: 20 to 50 µg/mL (≈ 49.7 to 124 µM)
Cc1[nH]c(-c2cc(C)n(-c3ccc(C(C)C)cc3)c2C)nc1-c1ccccc1 [Compound 58]		20 to 50 (≈ 54.1 to 135 µM)					3	
Cc1[nH]c(-c2cc(C)n(-c3ccc(Cl)cc3)c2C)nc1-c1ccccc1 [Compound 8]		20 to 50 (≈ 55.3 to 138 µM)				3 (MIC100 of 2-5 μg/ml)	2	
FC(F)(F)Oc1ccccc1-c1ccc(-c2nc(-c3ccccc3Cl)c[nH]2)o1 [Compound 67]			11 to 201 (≈ 27.2 to 497 µM)			3 (MIC100 of 2-5 μg/ml)	2	MIC [4, 12]: 6 to 10 µg/mL (≈ 14.8 to 24.7 µM)
Cc1[nH]c(-c2ccc(-c3ccccc3Cl)o2)nc1-c1ccccc1 [Compound 3]	11 to 201 (≈ 32.9 to 600 µM)	11 to 201 (≈ 32.9 to 600 µM)	11 to 201 (≈ 32.9 to 600 µM)	3 to 10 (≈ 8.96 to 29.9 µM)	3 to 10 (≈ 8.96 to 29.9 µM)		3	
Cc1nc(-c2ccc(-c3ccc(Cl)c(OC(F)(F)F)c3)o2)[nH]c1-c1ccc(Cl)cc1 [Compound 44]		11 to 201 (≈ 24.3 to 443 µM)	11 to 201 (≈ 24.3 to 443 µM)		1 to 3 (≈ 2.21 to 6.62 µM)		2	MIC [7]: 1 to 3 µg/mL (≈ 2.21 to 6.62 µM); Antibacterial activity Staphylococcus aureus (MRSA) ([1]; 24 h): 2 (MIC100 of 11-201 μg/ml)
CCc1ccc(-c2ccc(-c3nc(-c4ccccc4)c(C)[nH]3)o2)cc1 [Compound 53]	20 to 50 (≈ 60.9 to 152 µM)	20 to 50 (≈ 60.9 to 152 µM)		3 to 10 (≈ 9.13 to 30.4 µM)	3 to 10 (≈ 9.13 to 30.4 µM)		3	
Cc1nc(-c2ccc(-c3cc(F)ccc3C(F)(F)F)o2)[nH]c1-c1ccccc1 [Compound 31a]				20 to 50 (≈ 51.8 to 129 µM)	20 to 50 (≈ 51.8 to 129 µM)		2	MIC [4, 13]: 2 to 5 µg/mL (≈ 5.18 to 12.9 µM); MIC [7]: 20 to 50 µg/mL (≈ 51.8 to 129 µM)
Cc1[nH]c(-c2cc(C)n(-c3cccc(C(F)(F)F)c3)c2C)nc1-c1ccccc1 [Compound 36]		11 to 201 (≈ 27.8 to 508 µM)				3 (MIC100 of 2-5 μg/ml)	3	Antibacterial activity Staphylococcus aureus (MRSA) ([1]; 24 h): 2 (MIC100 of 11-201 μg/ml)
Cc1cccc(C)c1-c1ccc(-c2nc(-c3ccccc3)c(C)[nH]2)o1 [Compound 62]							3	
Cc1ccc(-c2ccc(-c3nc(-c4ccccc4)c(C)[nH]3)o2)cc1 [Compound 52]	20 to 50 (≈ 63.6 to 159 µM)						3	
CCCc1nc(-c2ccc(-c3ccccc3C)o2)[nH]c1C [Compound 100]						3 (MIC100 of 2-5 μg/ml)		Antibacterial activity Staphylococcus aureus (MRSA) ([1]; 24 h): 2 (MIC100 of 11-201 μg/ml)
COc1ccc(-c2ccc(-c3nc(C)c(-c4ccccc4)[nH]3)o2)c(C(F)(F)F)c1 [Compound 31]	3 to 10 (≈ 7.53 to 25.1 µM)	3 to 10 (≈ 7.53 to 25.1 µM)		3 to 10 (≈ 7.53 to 25.1 µM)	3 to 10 (≈ 7.53 to 25.1 µM)		3	
Cc1[nH]c(-c2ccc(-c3ccc(C(F)(F)F)cc3)s2)nc1-c1ccccc1 [Compound 46]					11 to 201 (≈ 28.6 to 523 µM)	3 (MIC100 of 2-5 μg/ml)		MIC [4, 12]: 2 to 5 µg/mL (≈ 5.2 to 13 µM); Antibacterial activity Staphylococcus aureus (MSSA) ([3]; MIC100 class score, broth microdilution, 24 h): 2 (MIC100 of 11-201 μg/ml)
Cc1[nH]c(-c2ccc(-c3cccc(Cl)c3Cl)o2)nc1-c1ccccc1 [Compound 2]				20 to 50 (≈ 54.2 to 135 µM)	20 to 50 (≈ 54.2 to 135 µM)		2	MIC [4, 13]: 2 to 5 µg/mL (≈ 5.42 to 13.5 µM); MIC [7]: 20 to 50 µg/mL (≈ 54.2 to 135 µM)
